compound: COc1cccc2c1C(=O)c1c(O)c3c(c(O)c1C2=O)C[C@@](O)(C(=O)CO)C[C@@H]3O[C@H]1C[C@H](N)[C@H](O)[C@H](C)O1 [Doxorubicin] + CS(=O)(=O)N1CCN(Cc2cc3nc(-c4cccc5[nH]ncc45)nc(N4CCOCC4)c3s2)CC1 [Pictilisib] (partner 1 µM); assay: relative viability (nuclei count vs DMSO), 5 days (fraction); higher = more cells survive; details: first compound 0.001 µM
Method in brief: (§1)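 Each reported value is a median over duplicate plates. It expresses relative viability: treated-well nuclei count divided by vehicle-well nuclei count. Lung cancer cell lines in 1536-well plates were dosed by pin tool a day after seeding, alone with one drug or with a fixed anchor-drug dose plus five library-drug doses (not always all listed) in √10 steps, and nuclei were counted after 5 days.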

Row | Cell Line | relative viability
1 | NCI-H1944 | 0.327
2 | EKVX | 0.453
3 | LCLC-103H | 0.618
4 | NCI-H2170 | 0.234
5 | NCI-H1993 | 0.78
6 | ABC-1 | 0.849
7 | PC-14 | 0.619
8 | HCC-366 | 0.155

same assay, conditions: first compound 0.003162 µM

Row | Cell Line | relative viability
9 | NCI-H1944 | 0.346
10 | EKVX | 0.444
11 | LCLC-103H | 0.677
12 | NCI-H2170 | 0.302
13 | NCI-H1993 | 0.817
14 | NCI-H23 | 0.475
15 | ABC-1 | 0.642
16 | PC-14 | 0.926
17 | HCC-366 | 0.182

same assay, conditions: first compound 0.01 µM

Row | Cell Line | relative viability
18 | NCI-H1944 | 0.381
19 | EKVX | 0.399
20 | LCLC-103H | 0.569
21 | NCI-H2170 | 0.352
22 | NCI-H1993 | 0.748
23 | NCI-H23 | 0.462
24 | ABC-1 | 0.566
25 | PC-14 | 0.809
26 | HCC-366 | 0.119

same assay, conditions: first compound 0.03162 µM

Row | Cell Line | relative viability
27 | NCI-H1944 | 0.345
28 | EKVX | 0.434
29 | LCLC-103H | 0.588
30 | NCI-H2170 | 0.316
31 | NCI-H1993 | 0.814
32 | NCI-H23 | 0.375
33 | ABC-1 | 0.317
34 | PC-14 | 0.568
35 | HCC-366 | 0.162

same assay, conditions: first compound 0.1 µM

Row | Cell Line | relative viability
36 | NCI-H1944 | 0.347
37 | EKVX | 0.429
38 | LCLC-103H | 0.578
39 | NCI-H2170 | 0.38
40 | NCI-H1993 | 0.656
41 | NCI-H23 | 0.401
42 | ABC-1 | 0.356
43 | PC-14 | 0.663
44 | HCC-366 | 0.162

compound: COc1cccc2c1C(=O)c1c(O)c3c(c(O)c1C2=O)C[C@@](O)(C(=O)CO)C[C@@H]3O[C@H]1C[C@H](N)[C@H](O)[C@H](C)O1 [Doxorubicin] + Nc1ncn([C@H]2C[C@H](O)[C@@H](CO)O2)c(=O)n1 [Decitabine] (partner 2 µM); assay: as above; details: first compound 0.001 µM
Method in brief: as §1

Row | Cell Line | relative viability
45 | NCI-H1944 | 0.441
46 | EKVX | 0.389
47 | LCLC-103H | 0.751
48 | NCI-H2170 | 0.498
49 | NCI-H1993 | 0.625
50 | NCI-H23 | 0.335
51 | ABC-1 | 0.993
52 | PC-14 | 0.246
53 | HCC-366 | 0.334

same assay, conditions: first compound 0.003162 µM

Row | Cell Line | relative viability
54 | NCI-H1944 | 0.506
55 | EKVX | 0.34
56 | LCLC-103H | 0.747
57 | NCI-H2170 | 0.472
58 | NCI-H1993 | 0.582
59 | NCI-H23 | 0.304
60 | ABC-1 | 1.18
61 | PC-14 | 0.228
62 | HCC-366 | 0.35

same assay, conditions: first compound 0.01 µM

Row | Cell Line | relative viability
63 | NCI-H1944 | 0.403
64 | EKVX | 0.307
65 | LCLC-103H | 0.75
66 | NCI-H2170 | 0.435
67 | NCI-H1993 | 0.546
68 | NCI-H23 | 0.335
69 | ABC-1 | 0.955
70 | PC-14 | 0.238
71 | HCC-366 | 0.281

same assay, conditions: first compound 0.03162 µM

Row | Cell Line | relative viability
72 | NCI-H1944 | 0.372
73 | EKVX | 0.296
74 | LCLC-103H | 0.789
75 | NCI-H2170 | 0.396
76 | NCI-H1993 | 0.551
77 | NCI-H23 | 0.284
78 | ABC-1 | 0.708
79 | PC-14 | 0.0977
80 | HCC-366 | 0.309

same assay, conditions: first compound 0.1 µM

Row | Cell Line | relative viability
81 | NCI-H1944 | 0.439
82 | EKVX | 0.375
83 | LCLC-103H | 0.73
84 | NCI-H2170 | 0.491
85 | NCI-H1993 | 0.549
86 | NCI-H23 | 0.365
87 | ABC-1 | 0.726
88 | PC-14 | 0.0677
89 | HCC-366 | 0.334

compound: COC1=C(C=C(C=C1)C2=CC3=NC=CN3C(=N2)NC4=C(C=CC=N4)C(=O)N)OC [BAY61-3606] + O=C(c1cc(Cc2n[nH]c(=O)c3ccccc23)ccc1F)N1CCN(C(=O)C2CC2)CC1 [Olaparib] (partner 8 µM); assay: as above; details: first compound 0.02 µM
Method in brief: as §1

Row | Cell Line | relative viability
90 | NCI-H1944 | 0.439
91 | EKVX | 0.99
92 | LCLC-103H | 0.764
93 | NCI-H2170 | 0.59
94 | NCI-H1993 | 1.11
95 | NCI-H23 | 0.327
96 | ABC-1 | 0.908
97 | HCC-366 | 0.406

same assay, conditions: first compound 0.06325 µM

Row | Cell Line | relative viability
98 | NCI-H1944 | 0.38
99 | EKVX | 0.999
100 | LCLC-103H | 0.786
101 | NCI-H2170 | 0.62
102 | NCI-H1993 | 1.04
103 | NCI-H23 | 0.304
104 | ABC-1 | 0.686
105 | PC-14 | 0.284
106 | HCC-366 | 0.436

same assay, conditions: first compound 0.2 µM

Row | Cell Line | relative viability
107 | NCI-H1944 | 0.397
108 | EKVX | 0.798
109 | LCLC-103H | 0.847
110 | NCI-H2170 | 0.571
111 | NCI-H1993 | 0.984
112 | NCI-H23 | 0.289
113 | ABC-1 | 0.76
114 | PC-14 | 0.212
115 | HCC-366 | 0.365

same assay, conditions: first compound 0.6325 µM

Row | Cell Line | relative viability
116 | NCI-H1944 | 0.434
117 | EKVX | 0.91
118 | LCLC-103H | 0.758
119 | NCI-H2170 | 0.626
120 | NCI-H1993 | 1.13
121 | NCI-H23 | 0.305
122 | ABC-1 | 0.494
123 | PC-14 | 0.235
124 | HCC-366 | 0.324

same assay, conditions: first compound 2 µM

Row | Cell Line | relative viability
125 | NCI-H1944 | 0.258
126 | EKVX | 0.782
127 | LCLC-103H | 0.772
128 | NCI-H2170 | 0.435
129 | NCI-H1993 | 0.82
130 | NCI-H23 | 0.288
131 | ABC-1 | 0.711
132 | PC-14 | 0.204
133 | HCC-366 | 0.235

compound: COc1cccc2c1C(=O)c1c(O)c3c(c(O)c1C2=O)C[C@@](O)(C(=O)CO)C[C@@H]3O[C@H]1C[C@H](N)[C@H](O)[C@H](C)O1 [Doxorubicin] + NC(=O)Nc1cc(-c2cccc(F)c2)sc1C(=O)N[C@H]1CCCNC1 [AZD7762] (partner 0.2 µM); assay: as above; details: first compound 0.001 µM
Method in brief: as §1

Row | Cell Line | relative viability
134 | NCI-H1944 | 0.512
135 | EKVX | 0.719
136 | LCLC-103H | 0.781
137 | NCI-H2170 | 0.825
138 | NCI-H1993 | 0.856
139 | NCI-H23 | 0.142
140 | ABC-1 | 0.443
141 | PC-14 | 0.387
142 | HCC-366 | 0.278

same assay, conditions: first compound 0.003162 µM

Row | Cell Line | relative viability
143 | NCI-H1944 | 0.573
144 | EKVX | 0.844
145 | LCLC-103H | 0.815
146 | NCI-H2170 | 0.95
147 | NCI-H1993 | 0.882
148 | NCI-H23 | 0.249
149 | ABC-1 | 0.937
150 | PC-14 | 0.366
151 | HCC-366 | 0.234

same assay, conditions: first compound 0.01 µM

Row | Cell Line | relative viability
152 | NCI-H1944 | 0.451
153 | EKVX | 0.794
154 | LCLC-103H | 0.75
155 | NCI-H2170 | 0.792
156 | NCI-H1993 | 0.708
157 | NCI-H23 | 0.229
158 | PC-14 | 0.519
159 | HCC-366 | 0.233

same assay, conditions: first compound 0.03162 µM

Row | Cell Line | relative viability
160 | NCI-H1944 | 0.483
161 | EKVX | 0.725
162 | LCLC-103H | 0.767
163 | NCI-H2170 | 0.626
164 | NCI-H1993 | 0.73
165 | NCI-H23 | 0.204
166 | ABC-1 | 0.655
167 | PC-14 | 0.259
168 | HCC-366 | 0.117

same assay, conditions: first compound 0.1 µM

Row | Cell Line | relative viability
169 | NCI-H1944 | 0.46
170 | EKVX | 0.486
171 | LCLC-103H | 0.826
172 | NCI-H2170 | 0.961
173 | NCI-H1993 | 0.579
174 | NCI-H23 | 0.208
175 | ABC-1 | 0.6
176 | PC-14 | 0.15
177 | HCC-366 | 0.0686
